According to patent publication US20250100968A1, “BICYCLIC-HETEROCYCLE DERIVATIVES AND RELATED USES” (CENTESSA PHARMACEUTICALS (UK) LIMITED, priority 2022, published 2025):

Biological target: T1, human orexin type 2 receptor (hOX2R) (Homo sapiens, UniProt O43614)
T1 sequence (O43614 1-444): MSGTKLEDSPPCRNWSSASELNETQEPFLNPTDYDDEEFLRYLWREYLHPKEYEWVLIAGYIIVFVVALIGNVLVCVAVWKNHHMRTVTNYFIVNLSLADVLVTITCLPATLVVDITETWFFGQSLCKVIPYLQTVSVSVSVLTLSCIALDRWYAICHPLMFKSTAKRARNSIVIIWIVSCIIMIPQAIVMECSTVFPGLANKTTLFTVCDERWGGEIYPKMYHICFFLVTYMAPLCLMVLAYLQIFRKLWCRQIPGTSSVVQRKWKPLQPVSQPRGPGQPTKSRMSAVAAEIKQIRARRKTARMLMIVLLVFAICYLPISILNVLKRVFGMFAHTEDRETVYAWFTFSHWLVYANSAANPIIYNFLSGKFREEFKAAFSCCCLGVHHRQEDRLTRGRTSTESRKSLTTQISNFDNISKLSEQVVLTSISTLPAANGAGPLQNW
Test: cell-based
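Note: agonist activity in CHO cells stably expressing hOX2R, intracellular Ca2+ via Calcium 5 dye fluorescence area over 2 min, buffer-only as 0% and 10 nM orexin A as 100%.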

Method: Measurement of orexin type 2 receptor agonist activity. […] After removal of the medium, 50 μl of assay buffer 1 (0.1% bovine serum albumin (Sigma Aldrich), 20 mM HEPES (Molecular Dimensions), 250 mM probenecid (Sigma Aldrich), 1× Calcium 5 dye (Molecular Devices) in Hank's balanced salt solution (Invitrogen)) was added, and the cells were incubated for 60 min under the conditions of 37° C., 5% CO2. A test compound was dissolved in dimethyl sulfoxide (Sigma Aldrich) to 10 mM, and then diluted with assay buffer 2 (20 mM HEPES, Hank's balanced salt solution, 0.1% bovine serum albumin). For the reaction, a test compound solution (10 μl) was added using Fluorescent Imaging Plate Reader TETRA (FLIPR TETRA: manufactured by Molecular Devices), a fluorescence value (excitation wavelength 488 nm, measurement wavelength 570 nm) of each well was measured every one second for 2 min, and the agonist activity was determined using the area of the fluorescence value as an indicator of intracellular Ca^2+ concentration. The agonist activity of the test compound was calculated assuming that the fluorescence value of the well added with only the dilution buffer was 0% and the fluorescence value of the well added with 10 nM human orexin A (Tocris) buffer was 100%.

SMILES	EC50
CC(C)(F)CNC(=O)N1CC2(CC2)[C@H](NS(=O)(=O)CF)[C@@H]1Cc1cccc(-c2cc(F)cc(F)c2)c1F [compound 37, (6S,7S)-N-(2-fluoro-2-methylpropyl)-7-((fluoromethyl)sulfonamido)-6-((2,3′,5′-trifluoro-[1,1′-biphenyl]-3-yl)methyl)-5-azaspiro[2.4]heptane-5-carboxamide]	1 to 10 nM
O=C([C@H](O)CF)N1CC2(CC2)[C@H](NS(=O)(=O)CF)[C@@H]1Cc1cccc(-c2cc(F)cc(F)c2)c1F [compound 23, 1-fluoro-N-((6S,7S)-5-((S)-3-fluoro-2-hydroxypropanoyl)-6-((2,3′,5′-trifluoro-[1,1′-biphenyl]-3-yl)methyl)-5-azaspiro[2.4]heptan-7-yl)methanesulfonamide]	1 to 10 nM
O=C(N1CC2(CC2)[C@H](NS(=O)(=O)CF)[C@@H]1Cc1cccc(-c2ccccc2)c1F)C1(CF)COC1 [compound 81, 1-fluoro-N-((6S,7S)-6-((2-fluoro-[1,1′-biphenyl]-3-yl)methyl)-5-(3-(fluoromethyl)oxetane-3-carbonyl)-5-azaspiro[2.4]heptan-7-yl)methanesulfonamide]	1 to 10 nM
CO[C@@H](C)C(=O)N1CC2(CC2)[C@H](NS(=O)(=O)C(F)F)[C@@H]1Cc1cccc(-c2cc(F)cc(F)c2)c1F [compound 65, 1,1-difluoro-N-((6S,7S)-5-((S)-2-methoxypropanoyl)-6-((2,3′,5′-trifluoro-[1,1′-biphenyl]-3-yl)methyl)-5-azaspiro[2.4]heptan-7-yl)methanesulfonamide]	1 to 10 nM
N#C[C@]1(C(=O)N2CC3(CC3)[C@H](NS(=O)(=O)CF)[C@@H]2Cc2cc(F)cc(-c3ccccc3)c2F)CCO1 [compound 85, N-((6S,7S)-5-((S)-2-cyanooxetane-2-carbonyl)-6-((2,5-difluoro-[1,1′-biphenyl]-3-yl)methyl)-5-azaspiro[2.4]heptan-7-yl)-1-fluoromethanesulfonamide]	1 to 10 nM
O=C([C@@H](O)C1CC1)N1CC2(CC2)[C@H](NS(=O)(=O)C(F)F)[C@@H]1Cc1cccc(-c2cc(F)cc(F)c2)c1F [compound 32, N-((6S,7S)-5-((S)-2-cyclopropyl-2-hydroxyacetyl)-6-((2,3′,5′-trifluoro-[1,1′-biphenyl]-3-yl)methyl)-5-azaspiro[2.4]heptan-7-yl)-1,1-difluoromethanesulfonamide]	1 to 10 nM
C[C@@](O)(C(=O)N1CC2(CC2)[C@H](NS(=O)(=O)C(F)F)[C@@H]1Cc1cccc(-c2ccccc2)c1F)C1CC1 [compound 75, N-((6S,7S)-5-((S)-2-cyclopropyl-2-hydroxypropanoyl)-6-((2-fluoro-[1,1′-biphenyl]-3-yl)methyl)-5-azaspiro[2.4]heptan-7-yl)-1,1-difluoromethanesulfonamide]	1 to 10 nM
C[C@H](C#N)C(=O)N1CC2(CC2)[C@H](NS(=O)(=O)C(F)F)[C@@H]1Cc1cccc(-c2ccccc2)c1F [compound 40, N-((6S,7S)-5-((R)-2-cyanopropanoyl)-6-((2-fluoro-[1,1′-biphenyl]-3-yl)methyl)-5-azaspiro[2.4]heptan-7-yl)-1,1-difluoromethanesulfonamide]	1 to 10 nM
N#C[C@]1(C(=O)N2CC3(CC3)[C@H](NS(=O)(=O)CF)[C@@H]2Cc2cccc(-c3cc(F)cc(F)c3)c2F)CCO1 [compound 47, N-((6S,7S)-5-((S)-2-cyanooxetane-2-carbonyl)-6-((2,3′,5′-trifluoro-[1,1′-biphenyl]-3-yl)methyl)-5-azaspiro[2.4]heptan-7-yl)-1-fluoromethanesulfonamide]	1 to 10 nM
O=C([C@H]1CCCO1)N1CC2(CC2)[C@H](NS(=O)(=O)CF)[C@@H]1Cc1cccc(-c2cc(F)cc(F)c2)c1F [compound 42, 1-fluoro-N-((6S,7S)-5-((R)-tetrahydrofuran-2-carbonyl)-6-((2,3′,5′-trifluoro-[1,1′-biphenyl]-3-yl)methyl)-5-azaspiro[2.4]heptan-7-yl)methanesulfonamide]	1 to 10 nM
CC[C@](C)(O)C(=O)N1CC2(CC2)[C@H](NS(=O)(=O)C(F)F)[C@@H]1Cc1cccc(-c2cc(F)cc(F)c2)c1F [compound 78, 1,1-difluoro-N-((6S,7S)-5-((S)-2-hydroxy-2-methylbutanoyl)-6-((2,3′,5′-trifluoro-[1,1′-biphenyl]-3-yl)methyl)-5-azaspiro[2.4]heptan-7-yl)methanesulfonamide]	1 to 10 nM
CC(C)NC(=O)N1CC2(CC2)[C@H](NS(=O)(=O)CF)[C@@H]1Cc1cccc(-c2ccccc2)c1F [compound 82, (6S,7S)-6-((2-fluoro-[1,1′-biphenyl]-3-yl)methyl)-7-((fluoromethyl)sulfonamido)-N-isopropyl-5-azaspiro[2.4] heptane-5-carboxamide]	1 to 10 nM
C[C@](O)(C(=O)N1CC2(CC2)[C@H](NS(=O)(=O)CF)[C@@H]1Cc1cc(F)cc(-c2ccccc2)c1F)C(F)F [compound 84, N-((6S,7S)-5-((S)-3,3-difluoro-2-hydroxy-2-methylpropanoyl)-6-((2,5-difluoro-[1,1′-biphenyl]-3-yl)methyl)-5-azaspiro[2.4]heptan-7-yl)-1-fluoromethanesulfonamide]	1 to 10 nM
O=C(C(O)CF)N1CC2(CC2)[C@H](NS(=O)(=O)C(F)F)[C@@H]1Cc1cccc(-c2cccc(F)c2)c1F (mixture of isomers) [compound 29, N-((6S,7S)-6-((2,3′-difluoro-[1,1′-biphenyl]-3-yl)methyl)-5-((RS)-3-fluoro-2-hydroxypropanoyl)-5-azaspiro[2.4]heptan-7-yl)-1,1-difluoromethanesulfonamide]	0.0631 to 1 nM

Continued, values first:

EC50	SMILES
0.0631 to 1 nM	N#C[C@]1(C(=O)N2CC3(CC3)[C@H](NS(=O)(=O)C(F)F)[C@@H]2Cc2cccc(-c3cc(F)cc(F)c3)c2F)CCO1 [compound 48, N-((6S,7S)-5-((S)-2-cyanooxetane-2-carbonyl)-6-((2,3′,5′-trifluoro-[1,1′-biphenyl]-3-yl)methyl)-5-azaspiro[2.4]heptan-7-yl)-1,1-difluoromethanesulfonamide]
0.0631 to 1 nM	C[C@H](CF)NC(=O)N1CC2(CC2)[C@H](NS(=O)(=O)CF)[C@@H]1Cc1cccc(-c2cc(F)cc(F)c2)c1F [compound 61, (6S,7S)-7-((fluoromethyl)sulfonamido)-N-((R)-1-fluoropropan-2-yl)-6-((2,3′,5′-trifluoro-[1,1′-biphenyl]-3-yl)methyl)-5-azaspiro[2.4]heptane-5-carboxamide]
0.0631 to 1 nM	N#CC1(C(=O)N2CC3(CC3)[C@H](NS(=O)(=O)CF)[C@@H]2Cc2cc(F)cc(-c3ccccc3)c2F)CC1 [compound 76, N-((6S,7S)-5-(1-cyanocyclopropane-1-carbonyl)-6-((2,5-difluoro-[1,1′-biphenyl]-3-yl)methyl)-5-azaspiro[2.4]heptan-7-yl)-1-fluoromethanesulfonamide]
0.0631 to 1 nM	CO[C@@H](C)C(=O)N1CC2(CC2)[C@H](NS(=O)(=O)CF)[C@@H]1Cc1cccc(-c2cc(F)cc(F)c2)c1F [compound 69, 1-fluoro-N-((6S,7S)-5-((S)-2-methoxypropanoyl)-6-((2,3′,5′-trifluoro-[1,1′-biphenyl]-3-yl)methyl)-5-azaspiro[2.4]heptan-7-yl)methanesulfonamide]
0.0631 to 1 nM	N#CC1(C(=O)N2CC3(CC3)[C@H](NS(=O)(=O)CF)[C@@H]2Cc2cccc(-c3ccccc3)c2F)CC1 [compound 5, N-((6S,7S)-5-(1-cyanocyclopropane-1-carbonyl)-6-((2-fluoro-[1,1′-biphenyl]-3-yl)methyl)-5-azaspiro[2.4]heptan-7-yl)-1-fluoromethanesulfonamide]
0.0631 to 1 nM	CC[C@](C)(O)C(=O)N1CC2(CC2)[C@H](NS(=O)(=O)CF)[C@@H]1Cc1cccc(-c2cccc(F)c2)c1F [compound 33, N-((6S,7S)-6-((2,3′-difluoro-[1,1′-biphenyl]-3-yl)methyl)-5-((S)-2-hydroxy-2-methylbutanoyl)-5-azaspiro[2.4]heptan-7-yl)-1-fluoromethanesulfonamide]
0.0631 to 1 nM	CC(C)(F)CNC(=O)N1CC2(CC2)[C@H](NS(=O)(=O)CF)[C@@H]1Cc1cc(F)cc(-c2ccccc2)c1F [compound 51, (6S,7S)-6-((2,5-difluoro-[1,1′-biphenyl]-3-yl)methyl)-N-(2-fluoro-2-methylpropyl)-7-((fluoromethyl)sulfonamido)-5-azaspiro[2.4]heptane-5-carboxamide]
0.0631 to 1 nM	C[C@@](O)(CF)C(=O)N1CC2(CC2)[C@H](NS(=O)(=O)CF)[C@@H]1Cc1cccc(-c2ccccc2)c1F [compound 35, 1-fluoro-N-((6S,7S)-5-((S)-3-fluoro-2-hydroxy-2-methylpropanoyl)-6-((2-fluoro-[1,1′-biphenyl]-3-yl)methyl)-5-azaspiro[2.4]heptan-7-yl)methanesulfonamide]
0.0631 to 1 nM	N#C[C@@]1(C(=O)N2CC3(CC3)[C@H](NS(=O)(=O)CF)[C@@H]2Cc2cccc(-c3cc(F)ccc3F)c2F)CCO1 [compound 79, N-((6S,7S)-5-((R)-2-cyanooxetane-2-carbonyl)-6-((2,2′,5′-trifluoro-[1,1′-biphenyl]-3-yl)methyl)-5-azaspiro[2.4]heptan-7-yl)-1-fluoromethanesulfonamide]
0.0631 to 1 nM	C[C@H](CF)NC(=O)N1CC2(CC2)[C@H](NS(=O)(=O)C2(F)CC2)[C@@H]1Cc1cccc(-c2ccccc2)c1F [compound 86, (6S,7S)-6-((2-fluoro-[1,1′-biphenyl]-3-yl)methyl)-7-((1-fluorocyclopropane)-1-sulfonamido)-N-((R)-1-fluoropropan-2-yl)-5-azaspiro[2.4]heptane-5-carboxamide]
